Reference: patent publication US9873693B2 (Sunesis Pharmaceuticals, Inc., priority 2006, dated 2018)
Like-named read-outs stand apart in the source and are kept apart here.

What was measured:
phospho-akt (Thr308) = phospho-akt (Thr308) MSD ELISA in PC-3 cells; type: cell-based; settings: Homo sapiens; for EC50: PC-3, 2 h
Method: PC-3 cells were harvested by trypsin and counted. Cells were plated in coated 96-well flat bottom plates (plate 15,000 cells/well in 100 ul growth media (10% FBS, 1× pen-strep) an place in an incubator overnight.
Subject inhibitors were stocked at 50 mM, then diluted to 30 mM (4.8 μl cpd plus […] DMSO) in 100% DMSO. Three-fold dilutions were performed from 30 mM stock. (4 μl into 8 ul 100% DMSO). Aliquots of 1.0 μl of inhibitor solution were transferred into SF Medium (using deep well block).
Control wells were prepared as follows. For DMSO high controls, 1.0 μl of 100% DMSO was added into 1.0 ml SF.
MSD plates were blocked for 1 hour by adding 150 μl of Blocking Solution (3% BSA) to each well. The MSD plates were washed 4× with TBST, and 50 μl lysates were transferred to MSD plate and place on plate shaker shake at 4 degrees O/N, light shaking (speed 3.5). The plate was washed 4× with TBST.
25 μl of Ab detection solution was added to each well. The plate was sealed and incubated 1 hr RT, light shaking (speed 3.5). The plate was washed 4 times with TBST. 150 μl of Read Buffer was added (5 mls 4×MSD Read Buffer+15 mls water). Finally the plate was read immediately on the MSD plate reader.

phosphorylated PDK1 = phosphorylated PDK1 (Homo sapiens (Human), UniProt O15530); assay: PDK1 kinase assay (coupled PDK1/AKT/FAM-crosstide, IMAP); type: biochemical; settings: 0.5 nM phosphorylated PDK1, 24 μM ATP; read-out: Inhibition of phospo-PDK1 in vitro IC50
[1] = PC-3 cells, 2 hours, no serum, read-out: Inhibition of P308 Akt in cells using MSD EC50
[2] = PC-3 cells, 2 hours, no serum, read-out: Reduction of Cellular Levels of Akt p308 By MSD ELISA (EC50 μM)
[3] = read-out: Inhibition of P308 Akt in cells using MSD EC50

phosphorylated PDK1, sequence (O15530 51-360): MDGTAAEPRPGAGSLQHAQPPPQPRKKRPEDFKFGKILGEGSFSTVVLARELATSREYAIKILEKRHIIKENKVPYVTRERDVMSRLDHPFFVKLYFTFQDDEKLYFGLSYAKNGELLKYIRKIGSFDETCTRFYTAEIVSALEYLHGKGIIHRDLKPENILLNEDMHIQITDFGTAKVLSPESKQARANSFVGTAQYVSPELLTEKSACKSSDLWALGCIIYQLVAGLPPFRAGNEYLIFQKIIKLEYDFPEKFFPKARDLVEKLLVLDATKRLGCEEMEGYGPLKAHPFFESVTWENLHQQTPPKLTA

`O=C(NCc1ccc(OCCN2CCOCC2)c(-c2c[nH]c3ncccc23)c1)c1cccn(Cc2ccc(F)c(F)c2)c1=O` gave an EC50 (phospho-akt (Thr308); [1]) of 1 to 5 µM.
Work on `O=C(NCc1cccc(-c2c[nH]c3ncc(CO)cc23)c1)c1cccn(Cc2ccc(F)c(F)c2)c1=O` [Cpd 8] yielded an IC50 (phosphorylated PDK1) of less than 500 nM.
Compound `O=C(Nc1n[nH]c2ccc(-c3c[nH]c4ncccc34)cc12)c1cccn(Cc2ccc(F)c(F)c2)c1=O` [Cpd 42] has an EC50 (phospho-akt (Thr308); [2]) of 1 to 5 µM.
Compound `O=C(NCc1cccc(-c2c[nH]c3ncc(-c4nnn[nH]4)cc23)c1)c1cccn(Cc2ccc(F)c(F)c2)c1=O` [Cpd 43] has an EC50 (phospho-akt (Thr308); [2]) greater than 5 µM.
Compound `O=C(O)COc1cc(CNC(=O)c2cccn(Cc3ccc(F)c(F)c3)c2=O)cc(-c2c[nH]c3ncccc23)c1` [Cpd 61] has an IC50 (phosphorylated PDK1) of less than 500 nM.
Work on `NC(=O)COc1cc(CNC(=O)c2cccn(Cc3ccc(F)c(F)c3)c2=O)cc(-c2c[nH]c3ncccc23)c1` [Cpd 62] yielded an EC50 (phospho-akt (Thr308); [1]) of less than 1 µM.
In the case of `CN(C)C(=O)COc1cc(CNC(=O)c2cccn(Cc3ccc(F)c(F)c3)c2=O)cc(-c2c[nH]c3ncccc23)c1` [Cpd 63], the EC50 (phospho-akt (Thr308); [1]) is reported as less than 1 µM.
Work on `Nc1ncnc2ccc(-c3cccc(CNC(=O)c4cccn(Cc5ccc(F)c(F)c5)c4=O)c3)cc12` [Cpd 64] yielded an EC50 (phospho-akt (Thr308); [1]) greater than 5 µM.
`CC(C)Oc1cc(CNC(=O)c2cccn(Cc3cc(F)c(F)c(F)c3)c2=O)cc(-c2c[nH]c3ncccc23)c1` [Cpd 65] was tested, and the EC50 (phospho-akt (Thr308); [1]) was less than 1 µM.
Compound `O=C(Nc1ccnc2ccc(-c3c[nH]c4ncccc34)cc12)c1cccn(Cc2ccc(F)c(F)c2)c1=O` [Cpd 66] has an EC50 (phospho-akt (Thr308); [1]) of less than 1 µM.
Work on `O=C(NCc1cc(OC2CCNCC2)cc(-c2c[nH]c3ncccc23)c1)c1cccn(Cc2ccc(F)c(F)c2)c1=O` [Cpd 67] yielded an EC50 (phospho-akt (Thr308); [1]) of less than 1 µM.
For `O=C(NCc1cc(OCC(O)CO)cc(-c2c[nH]c3ncccc23)c1)c1cccn(Cc2ccc(F)c(F)c2)c1=O` (centres unmarked) [Cpd 68], the EC50 (phospho-akt (Thr308); [1]) was 1 to 5 µM.
For `O=C(NCc1cccc(-c2c[nH]c3ncc(C(=O)N4CCOCC4)cc23)c1)c1cccn(Cc2ccc(F)c(F)c2)c1=O` [Cpd 69], the EC50 (phospho-akt (Thr308); [1]) was less than 1 µM.
`Nc1ncnc2ccc(-c3ccc(CNC(=O)c4cccn(Cc5ccc(F)c(F)c5)c4=O)s3)cc12` [Cpd 70] was tested, and the EC50 (phospho-akt (Thr308); [1]) was less than 1 µM.
`O=C(NCc1cccc(-c2c[nH]c3nccc(F)c23)c1)c1cccn(Cc2ccc(F)c(F)c2)c1=O` [Cpd 74] gave an EC50 (phospho-akt (Thr308); [1]) of 1 to 5 µM.
For `O=C(NCc1cccc(-c2c[nH]c(C(=O)N3CCOCC3)c2)c1)c1cccn(Cc2ccc(F)c(F)c2)c1=O` [Cpd 76], the EC50 (phospho-akt (Thr308); [1]) was 1 to 5 µM.
`O=C(NCc1ccc(O)c(-c2c[nH]c3ncccc23)c1)c1cccn(Cc2ccc(F)c(F)c2)c1=O` [Cpd 82] was tested, and the EC50 (phospho-akt (Thr308); [1]) was 1 to 5 µM.
With `O=C(NCc1cc(OC2CCCCC2)cc(-c2c[nH]c3ncccc23)c1)c1cccn(Cc2ccc(F)c(F)c2)c1=O` [Cpd 84] the EC50 (phospho-akt (Thr308); [1]) was greater than 5 µM.
`O=C(NCc1cc(OC2CCCC2)cc(-c2c[nH]c3ncccc23)c1)c1cccn(Cc2ccc(F)c(F)c2)c1=O` [Cpd 85] showed an EC50 (phospho-akt (Thr308); [1]) of 1 to 5 µM.
With `CN1CCC(Oc2cc(CNC(=O)c3cccn(Cc4ccc(F)c(F)c4)c3=O)cc(-c3c[nH]c4ncccc34)c2)CC1` [Cpd 86] the EC50 (phospho-akt (Thr308); [3]) was 1 to 5 µM.
In the case of `Cn1nc(NC(=O)c2cccn(Cc3ccc(F)c(F)c3)c2=O)c2cc(-c3c[nH]c4ncccc34)ccc21` [Cpd 87], the EC50 (phospho-akt (Thr308); [1]) is reported as less than 1 µM.
`CC(C)(C)OC(=O)N1CCC(Oc2cc(CNC(=O)c3cccn(Cc4ccc(F)c(F)c4)c3=O)cc(-c3c[nH]c4ncccc34)c2)CC1` [Cpd 88] showed an EC50 (phospho-akt (Thr308); [1]) greater than 5 µM.
`CS(=O)(=O)N1CCC(Oc2cc(CNC(=O)c3cccn(Cc4ccc(F)c(F)c4)c3=O)cc(-c3c[nH]c4ncccc34)c2)CC1` [Cpd 94] was tested, and the EC50 (phospho-akt (Thr308); [1]) was less than 1 µM.
With `CCn1nc(NC(=O)c2cccn(Cc3ccc(F)c(F)c3)c2=O)c2cc(-c3c[nH]c4ncccc34)ccc21` [Cpd 95] the EC50 (phospho-akt (Thr308); [1]) was 1 to 5 µM.
Work on `O=C(Nc1cccc(C(=O)c2c[nH]c3ncccc23)c1)c1cccn(Cc2ccc(F)c(F)c2)c1=O` [Cpd 127] yielded an IC50 (phosphorylated PDK1) of less than 500 nM.
`O=C(NCc1noc(-c2c[nH]c3ncccc23)n1)c1cccn(Cc2ccc(F)c(F)c2)c1=O` [Cpd 129] gave an inhibition at 1 µM (phospho-akt (Thr308); PC-3 cells, at 1 μM, read-out: Percent Inhibition of phospho-Akt (308) By MSD ELISA) of less than 25% and an inhibition at 10 µM (phospho-akt (Thr308); PC-3 cells, at 10 μM, read-out: Percent Inhibition of phospho-Akt (308) By MSD ELISA) of less than 25%.
In the case of `O=C(NCc1coc(-c2c[nH]c3ncccc23)n1)c1cccn(Cc2ccc(F)c(F)c2)c1=O` [Cpd 131], the EC50 (phospho-akt (Thr308); [1]) is reported as 1 to 5 µM and the EC50 (phospho-akt (Thr308); [2]) is reported as 1 to 5 µM.
For `O=C(NCc1noc(-c2c[nH]c3ncccc23)n1)c1cccn(Cc2cc(F)c(F)c(F)c2)c1=O` [Cpd 138], the EC50 (phospho-akt (Thr308); [1]) was 1 to 5 µM and the EC50 (phospho-akt (Thr308); [2]) was 1 to 5 µM.
`CC(c1ccc(C(F)(F)F)cc1)n1cccc(C(=O)NCc2noc(-c3c[nH]c4ncccc34)n2)c1=O` (centres unmarked) [Cpd 140] showed an EC50 (phospho-akt (Thr308); [1]) of 1 to 5 µM and an EC50 (phospho-akt (Thr308); [2]) of 1 to 5 µM.
Compound `O=C(NCc1cccc(-c2c[nH]c3ncccc23)c1)c1cccn(Cc2ccc(C(F)(F)F)cc2)c1=O` [Cpd 145] has an EC50 (phospho-akt (Thr308); [1]) greater than 5 µM and an EC50 (phospho-akt (Thr308); [2]) of 1 to 5 µM.
`O=C(NCc1cc(-c2c[nH]c3ncccc23)ncn1)c1cccn(Cc2ccc(F)c(F)c2)c1=O` [Cpd 149] gave an IC50 (phosphorylated PDK1) of less than 500 nM.
With `O=C(N[C@@H](COc1ccc2[nH]c(=O)[nH]c2c1)c1ccccc1Cl)c1cccn(Cc2cc(F)c(F)c(F)c2)c1=O` [Cpd 151] the EC50 (phospho-akt (Thr308); [1]) was less than 1 µM.
Compound `O=C(N[C@@H](COc1ccc2[nH]c(=O)[nH]c2c1)C(=O)O)c1cccn(Cc2cc(F)c(F)c(F)c2)c1=O` [Cpd 154] has an IC50 (phosphorylated PDK1) of less than 500 nM.
For `C=C[C@H](COc1ccc2[nH]c(=O)[nH]c2c1)NC(=O)c1cccn(Cc2cc(F)c(F)c(F)c2)c1=O` [Cpd 159], the EC50 (phospho-akt (Thr308); [1]) was 1 to 5 µM.
With `O=C(NCCCc1ccc2[nH]c(=O)[nH]c2c1)c1cccn(Cc2ccc(F)c(F)c2)c1=O` [Cpd 161] the IC50 (phosphorylated PDK1) was less than 500 nM.
`O=C(NC(COc1ccc2[nH]c(=O)[nH]c2c1)c1cccnc1)c1cccn(Cc2cc(F)c(F)c(F)c2)c1=O` (centres unmarked) [Cpd 163] gave an EC50 (phospho-akt (Thr308); [3]) of 1 to 5 µM.
With `O=C(N[C@@H](COc1ccc2[nH]c(=O)[nH]c2c1)C1CC1)c1cccn(Cc2cc(F)c(F)c(F)c2)c1=O` [Cpd 168] the EC50 (phospho-akt (Thr308); [1]) was 1 to 5 µM.
`O=C(NCCOc1ccc2[nH]c(=O)[nH]c2c1F)c1cccn(Cc2ccc(F)c(F)c2)c1=O` [Cpd 169] was tested, and the EC50 (phospho-akt (Thr308); [1]) was 1 to 5 µM.
`O=C(NC/C=C/c1ccc2[nH]c(=O)[nH]c2c1)c1cccn(Cc2cc(F)c(F)c(F)c2)c1=O` [Cpd 170] gave an EC50 (phospho-akt (Thr308); [1]) of 1 to 5 µM.
With `O=C(O)c1cc(-c2c[nH]c3ncccc23)cc(CNC(=O)c2cccn(Cc3ccc(F)c(F)c3)c2=O)n1` [Cpd 172] the EC50 (phospho-akt (Thr308); [1]) was greater than 5 µM.
`C[C@H](COc1ccc2[nH]c(=O)[nH]c2c1)NC(=O)c1cccn(Cc2cc(F)c(F)c(F)c2)c1=O` [Cpd 173] showed an EC50 (phospho-akt (Thr308); [1]) of 1 to 5 µM.
`O=C(N[C@@H](COc1cc2[nH]c(=O)[nH]c2cn1)c1ccccc1)c1cccn(Cc2cc(F)c(F)c(F)c2)c1=O` [Cpd 176] was tested, and the IC50 (phosphorylated PDK1) was less than 500 nM.
For `O=C1Cc2ccc(OCCNC(=O)c3cccn(Cc4cc(F)c(F)c(F)c4)c3=O)cc2N1` [Cpd 207], the IC50 (phosphorylated PDK1) was less than 500 nM.
Compound `Cn1ccnc1/C=C1/C(=O)Nc2cc(/C=C/CNC(=O)c3cccn(Cc4cc(F)c(F)c(F)c4)c3=O)ccc21` [Cpd 210] has an IC50 (phosphorylated PDK1) of less than 500 nM.
`CN1CCC(=C2C(=O)Nc3cc(/C=C/CNC(=O)c4cccn(Cc5cc(F)c(F)c(F)c5)c4=O)ccc32)CC1` [Cpd 211] gave an IC50 (phosphorylated PDK1) of less than 500 nM.
Compound `Nc1ncc(-c2cccc(CNC(=O)c3cccn(Cc4ccc(F)c(F)c4)c3=O)c2)cn1` [Cpd 215] has an IC50 (phosphorylated PDK1) greater than 10000 nM.
`O=C(Nc1cccc(C(=O)c2c[nH]c3ccccc23)c1)c1cccn(Cc2ccc(F)c(F)c2)c1=O` [Cpd 221] showed an IC50 (phosphorylated PDK1) greater than 10000 nM.
`O=C(NCC1CCC(c2c[nH]c3ncccc23)CC1)c1cccn(Cc2ccc(F)c(F)c2)c1=O` (centres unmarked) [Cpd 223] gave an IC50 (phosphorylated PDK1) greater than 10000 nM.
`NS(=O)(=O)c1ccccc1-c1cccc(CNC(=O)c2cccn(Cc3ccc(F)c(F)c3)c2=O)c1` [Cpd 226] was tested, and the IC50 (phosphorylated PDK1) was greater than 10000 nM.
In the case of `NS(=O)(=O)c1cccc(-c2cccc(CNC(=O)c3cccn(Cc4ccc(F)c(F)c4)c3=O)c2)c1` [Cpd 227], the IC50 (phosphorylated PDK1) is reported as greater than 10000 nM.
With `NS(=O)(=O)c1ccc(-c2cccc(CNC(=O)c3cccn(Cc4ccc(F)c(F)c4)c3=O)c2)cc1` [Cpd 228] the IC50 (phosphorylated PDK1) was greater than 10000 nM.
